Assay results taken from patent publication US20100151015A1 (priority 2008, published 2010).

Experiments:
[1] = Solubility of Melperone HCl in various media; type: physicochemical
[2] = cited from earlier work
[3] = human, in vivo; cited from earlier work
[4] = cited from earlier work; remark: listed apart in the source
[5] = tested on: psychosis in patients with PD; conditions: cited from earlier work
[6] = tested on: psychosis associated with PD; conditions: initial open-label studies; cited from earlier work

CC1CCN(CCCC(=O)c2ccc(F)cc2)CC1.Cl [Melperone HCl, 1-(4-fluorophenyl)-4-(4-methyl-1-piperidinyl)-1-butanone hydrochloride]
solubility ([1]; ethanol, organic solvent or mixture): 88.5 mg/mL | solubility ([1]; phosphate buffer, aqueous buffer, pH 4.5 (phosphate)): 800 mg/mL | solubility ([1]; phosphate buffer, aqueous buffer, pH 6.8 (phosphate)): 800 mg/mL | solubility ([1]; phosphate buffer, aqueous buffer, pH 7.0 (phosphate)): ≥ 100 mg/mL | solubility ([1]; phosphate buffer, aqueous buffer, pH 7.1 (phosphate)): 51.3 mg/mL | solubility ([1]; phosphate buffer, aqueous buffer, pH 7.5 (phosphate)): 25.6 mg/mL | solubility ([1]; purified water, water): 800 mg/mL | solubility ([1]; simulated gastric fluid, pH 1.2 (0.1N HCl)): 700 mg/mL | pKa [2]: 9.1

CC1CCN(CCCC(=O)c2ccc(F)cc2)CC1 [melperone]
Solubility in aqueous solutions ([1]; higher pH values (above pH=7.5)): poorly soluble | Solubility in aqueous solutions ([1]; pH range from about 1.2 up to about pH 6.8): freely soluble | incidence of extrapyramidal side effect (EPS) or tardive dyskinesia [3]: low incidence | mean Tmax ([4]; oral tablet administration): 1.5 to 3.0 h | absolute oral bioavailability ([4]; oral, extensive first-pass metabolism): 50-70% | time over which efficacy was maintained ([5]; mean daily dose of 37.5 mg): 2 years | efficacy in the treatment of psychosis in patients with PD ([5]; proof-of-concept study): has shown efficacy | onset of efficacy ([5]; proof-of-concept study): rapid (within a week)

OCCOCCN1CCN(C2=Nc3ccccc3Sc3ccccc32)CC1 [quetiapine]
efficacy in psychosis associated with PD [6]: has shown efficacy | patients with worsening of motor symptoms of PD [6]: up to 30%
